By IC50 is commonly meant the concentration at which inhibition is half-maximal. A low value points to higher potency.

A short description of data set [1]: Permeability by PAMPA assay. Type of data set: ADME. The note with it: for Papp: read-out: permeability. Background: PAMPA measures passive passage across an artificial lipid membrane.
In data set [2] the target is T1, Insulin-like growth factor 1 receptor (Homo sapiens, UniProt P08069). In words: Inhibition of IGF1R.
Data set [3] addresses T1, Insulin-like growth factor 1 receptor. The data set can be described thus: Inhibition of IGF1R in IGF1R-SAL cells. It is filed as cell-based.

T1 sequence (P08069 31-736 limits assumed): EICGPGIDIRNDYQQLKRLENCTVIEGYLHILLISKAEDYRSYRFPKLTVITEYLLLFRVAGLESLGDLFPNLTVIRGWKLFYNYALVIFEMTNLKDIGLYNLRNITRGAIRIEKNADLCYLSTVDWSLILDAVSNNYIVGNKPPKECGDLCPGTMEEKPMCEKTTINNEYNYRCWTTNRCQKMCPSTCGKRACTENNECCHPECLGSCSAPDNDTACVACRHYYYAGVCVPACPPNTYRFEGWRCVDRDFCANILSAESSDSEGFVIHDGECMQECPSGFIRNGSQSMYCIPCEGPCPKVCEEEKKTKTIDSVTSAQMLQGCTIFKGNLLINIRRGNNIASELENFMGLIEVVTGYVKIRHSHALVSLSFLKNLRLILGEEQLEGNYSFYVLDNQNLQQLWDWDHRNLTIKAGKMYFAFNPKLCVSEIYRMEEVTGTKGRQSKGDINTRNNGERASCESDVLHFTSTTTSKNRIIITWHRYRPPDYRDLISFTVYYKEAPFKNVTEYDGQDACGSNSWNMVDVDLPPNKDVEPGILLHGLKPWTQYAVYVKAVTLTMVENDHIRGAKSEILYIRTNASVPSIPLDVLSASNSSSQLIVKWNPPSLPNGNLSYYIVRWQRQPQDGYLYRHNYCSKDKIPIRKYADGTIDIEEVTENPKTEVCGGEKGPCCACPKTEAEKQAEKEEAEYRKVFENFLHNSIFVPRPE
T1 sequence (P08069 741-1367 limits assumed): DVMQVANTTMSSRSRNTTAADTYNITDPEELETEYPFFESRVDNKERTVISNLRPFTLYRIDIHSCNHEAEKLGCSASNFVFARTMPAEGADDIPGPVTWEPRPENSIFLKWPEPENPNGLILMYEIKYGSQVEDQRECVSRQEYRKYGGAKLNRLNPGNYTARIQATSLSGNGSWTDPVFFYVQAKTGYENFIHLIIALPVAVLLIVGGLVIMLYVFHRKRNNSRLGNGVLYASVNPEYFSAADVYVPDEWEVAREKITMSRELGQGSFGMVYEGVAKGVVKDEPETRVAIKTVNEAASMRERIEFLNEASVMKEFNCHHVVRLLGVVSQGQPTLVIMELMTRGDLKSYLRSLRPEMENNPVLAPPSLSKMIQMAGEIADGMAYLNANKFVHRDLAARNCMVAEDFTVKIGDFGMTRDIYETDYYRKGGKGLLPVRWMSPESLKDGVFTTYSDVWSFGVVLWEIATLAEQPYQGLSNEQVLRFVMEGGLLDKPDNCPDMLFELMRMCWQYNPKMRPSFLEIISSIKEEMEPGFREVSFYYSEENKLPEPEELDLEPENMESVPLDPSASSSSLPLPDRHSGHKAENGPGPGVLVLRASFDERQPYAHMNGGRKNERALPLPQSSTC

Regarding `O=C(Nc1ccc(F)nc1)[C@@H]1CCCN1c1nc(Nc2cc(C3CC3)[nH]n2)c2cccn2n1`, in data set [1], the Papp was 77 ×10⁻⁶ cm/s. Further, the IC50 was 2.7 nM in data set [2] and 1 nM in data set [3].

In the case of `O=C(c1ccc(F)nc1)N1CCC[C@H]1c1nc(Nc2cc(C3CC3)[nH]n2)c2cccn2n1`, the Papp in data set [1] was 72.1 ×10⁻⁶ cm/s. In data set [3], this molecule returned an IC50 of 162 nM.

As to `O=C(c1ccc(F)nc1)N1CCC[C@@H]1c1nc(Nc2cc(C3CC3)[nH]n2)c2cccn2n1`, in data set [1], the Papp was determined as 93.5 ×10⁻⁶ cm/s. In data set [2], this molecule showed an IC50 of 8400 nM.

`O=C1CC[C@@H](c2nc(Nc3cc(C4CC4)[nH]n3)c3cccn3n2)N1C(=O)c1ccc(F)nc1`: the Papp in data set [1] stood at 60 ×10⁻⁶ cm/s. In addition, the results for the IC50 in data set [2] and in data set [3] were 11 nM and 508 nM, respectively.

As to `O=C(Nc1ccc(F)nc1)C1=C(c2nc(Nc3cc(C4CC4)[nH]n3)c3cccn3n2)CCC1`, the Papp in data set [1] is 82.2 ×10⁻⁶ cm/s. Besides, the results for the IC50 in data set [2] and in data set [3] were 32 nM and 237 nM, respectively.

Regarding `O=C(NCc1nc(Nc2cc(C3CC3)n[nH]2)c2cccn2n1)c1ccc(F)nc1`, the Papp in data set [1] worked out at 52.5 ×10⁻⁶ cm/s. Moreover, half-maximal inhibition in data set [3] (IC50) was put at 40 nM.

As for `O=C(Nc1ccc(F)nc1)[C@@H]1CCC[C@H]1c1nc(Nc2cc(C3CC3)n[nH]2)c2cccn2n1` (stereo in doubt; (+)-25), the Papp in data set [1] was 50.9 ×10⁻⁶ cm/s. Further, the figures for the 50% inhibitory concentration (IC50) in data set [2] and in data set [3] were 9.7 nM and 206 nM, respectively.

`O=C(Nc1ccc(F)nc1)[C@@H]1CCC[C@H]1c1nc(Nc2cc(C3CC3)n[nH]2)c2cccn2n1` (stereo in doubt; (-)-25) yielded a permeability in data set [1] of 85.4 ×10⁻⁶ cm/s. The IC50 amounted to 190 nM in data set [2] and 389 nM in data set [3].

For the molecule `C[C@@]1(C(=O)Nc2ccc(F)nc2)CCCN1c1nc(Nc2cc(C3CC3)n[nH]2)c2cccn2n1` [BMS-754807], the Papp in data set [1] was 63.4 ×10⁻⁶ cm/s.

Values taken from ChEMBL document CHEMBL1221304, “Proline isosteres in a series of 2,4-disubstituted pyrrolo[1,2-f][1,2,4]triazine inhibitors of IGF-1R kinase and IR kinase” (Bioorg Med Chem Lett, 2010).
